In assay [1] the test system is NRP-1. Set-up: method as in 2 sources, ref 30 = [30]; PMID 33209022; doi:10.2147/IJN.S270208; 30. Lu L. Chen H. Wang L. Zhao L. Cheng Y. Wang A. Wang F. Zhang X. A Dual Receptor Targeting- and BBB Penetrating- Peptide Functionalized Polyethyleneimine Nanocomplex for Secretory Endostatin Gene D ||| ref 19-22 = [19]; PMID 10747021; doi:10.1093/emboj/19.7.1525; 19. Binétruy-Tournaire R. Demangel C. Malavaud B. Vassy R. Rouyre S. Kraemer M. Plouët J. Derbin C. Perret G. Mazié J.C. Identification of a peptide blocking vascular endothelial growth factor (VEGF)- || [20]; PMID 16959272; doi:10.1016/j.lfs.2006.08.005; 20. Starzec A. Vassy R. Martin A. Lecouvey M. Di Benedetto M. Crépin M. Perret G.Y. Antiangiogenic and antitumor activities of peptide inhibiting the vascular endothelial growth factor binding to neur || [21]; PMID 17983687; doi:10.1016/j.peptides.2007.09.013; 21. Starzec A. Ladam P. Vassy R. Badache S. Bouchemal N. Navaza A. du Penhoat C.H. Perret G.Y. Structure-function analysis of the antiangiogenic ATWLPPR peptide inhibiting VEGF (165) binding to neurop || [22]; PMID 27693752; doi:10.1016/j.jconrel.2016.09.035; 22. Ying M. Shen Q. Zhan C. Wei X. Gao J. Xie C. Yao B. Lu W. A stabilized peptide ligand for multifunctional glioma targeted drug delivery J. Control. Release 2016 243 86 98 10.1016/j.jconrel.2016.09. As to conditions: cited from earlier work. An excerpt:
(§1) ATWLPPR (AT7), which was identified by a mutated phage lib ... || Intracranial delivery of therapeutic agents is primarily hindered by the BBB [24]. The intercellular tight junction caused by the BBB restricts the passive diffusion of almost all large-molecule and more than 98% of small-molecule drugs from peripheral blood circulation to the brain tissue.

Assay [2] has as its system VEGFR-2. Set-up: method as in 2 sources, ref 30 = [30]; PMID 33209022; doi:10.2147/IJN.S270208; 30. Lu L. Chen H. Wang L. Zhao L. Cheng Y. Wang A. Wang F. Zhang X. A Dual Receptor Targeting- and BBB Penetrating- Peptide Functionalized Polyethyleneimine Nanocomplex for Secretory Endostatin Gene D ||| ref 19-22 = [19]; PMID 10747021; doi:10.1093/emboj/19.7.1525; 19. Binétruy-Tournaire R. Demangel C. Malavaud B. Vassy R. Rouyre S. Kraemer M. Plouët J. Derbin C. Perret G. Mazié J.C. Identification of a peptide blocking vascular endothelial growth factor (VEGF)- || [20]; PMID 16959272; doi:10.1016/j.lfs.2006.08.005; 20. Starzec A. Vassy R. Martin A. Lecouvey M. Di Benedetto M. Crépin M. Perret G.Y. Antiangiogenic and antitumor activities of peptide inhibiting the vascular endothelial growth factor binding to neur || [21]; PMID 17983687; doi:10.1016/j.peptides.2007.09.013; 21. Starzec A. Ladam P. Vassy R. Badache S. Bouchemal N. Navaza A. du Penhoat C.H. Perret G.Y. Structure-function analysis of the antiangiogenic ATWLPPR peptide inhibiting VEGF (165) binding to neurop || [22]; PMID 27693752; doi:10.1016/j.jconrel.2016.09.035; 22. Ying M. Shen Q. Zhan C. Wei X. Gao J. Xie C. Yao B. Lu W. A stabilized peptide ligand for multifunctional glioma targeted drug delivery J. Control. Release 2016 243 86 98 10.1016/j.jconrel.2016.09. To be noted: cited from earlier work.
From the text: as §1

The subject of assay [3] is VEGF-induced rabbit corneal angiogenesis. As to conditions: cited from earlier work. The text has this:
Most peptides and proteins are usually functional and efficacious signaling molecules that naturally exist or are synthesized by artificial methods. Compared with proteins, peptides have higher tissue permeability, protease hydrolysis tolerability, and lower production costs. Furthermore, the pharmacological functions of peptides are easier to be improved by modification strategies, whereas their intrinsic properties are rarely affected. […] ATWLPPR (AT7), which was identified by a mutated phage lib ...

Assay [4] deals with ERK1/2. Kind of assay: Western blot, phosphorylation of ERK1/2. It counts as cell-based, human. To be noted: 320 μmol/L, 90 min, VEGF-A165 30 ng/mL, HUVECs, vs control, AT7, TAT, n = 3. Here is the method: (§2) For Western blotting analysis, HUVECs were seeded into 6-well culture plates at 3 × 10^5 cells/well and incubated overnight. […] Two control groups (F-12K medium in the absence or presence of VEGF-A165) were set. The cells were washed with cold PBS and lysed with lysis buffer (protease and phosphatase inhibitors) on the ice for 30 min, and then centrifuged at 4 °C for 15 min at 14,000 r/min. The supernatant was collected, and its total protein concentration was determined by the BCA protein assay kit. Equal amounts of proteins were separated by 10% SDS-PAGE gels and transferred to polyvinylidene difluoride (PVDF) membranes. After blocking with 5% non-fat milk for 1 h, the membranes were incubated with specific antibodies at 4 °C overnight. Then, the membranes were washed with TBST (Tris-Buffered Saline with 0.1% Tween 20) and incubated with horseradish peroxidase (HRP)-conjugated secondary antibody for 1 h at room temperature. The proteins on the membranes were visualized with enhanced chemiluminescence agents.
On the technique in general: Immunoblotting shows a protein as a band on a membrane.

Assay [5] has as its system SRC. In words: Western blot, phosphorylation of SRC. It counts as cell-based, human. To be noted: 320 μmol/L, 90 min, VEGF-A165 30 ng/mL, HUVECs, vs control, AT7, TAT, n = 3. Here is the method: as §2
The test system of assay [6] is VEGFR-2 and the above kinases (PLC-γ, ERK1/2, SRC, AKT, FAK). Kind of assay: Western blot, total expression levels. It counts as cell-based, human. To be noted: 320 μmol/L; 90 min; VEGF-A165 30 ng/mL; HUVECs; n = 3. Here is the method: as §2
Assay [7] deals with U87-mCherry-luc glioma tissue. Kind of assay: TUNEL staining of glioma tissue. It counts as in vivo, nude mice. As to conditions: 20 mg/kg/day i.v., 11 days; tissue at day 15; n = 3. As to the method:
The orthotopic U87-mCherry-luc glioma-bearing nude mice were randomly assigned to 6 groups (n = 5) according to the bioluminescence intensity of glioma measured on day 4. […] The bioluminescence intensity was measured on days 4, 7, 11, and 14, respectively. Nude mice were weighed daily. On day 15, the mice were sacrificed, and the glioma-bearing brains were harvested. The brain tissues were fixed with 4.0% paraformaldehyde, embedded in paraffin, and cut into slices. The TUNEL staining and CD31 immunohistochemical staining were conducted according to standard histological procedures.

Ends that are not written are not given here.

For the compound ATWLPPR [AT7, ATWLPPR], the “binding to NRP-1” value in assay [1] was “able to bind to VEGFR-2 and NRP-1”. For the same compound, the “binding to VEGFR-2” value in assay [2] was “able to bind to VEGFR-2 and NRP-1”. The “effect on VEGF-induced rabbit corneal angiogenesis” value in assay [3] is “inhibitory effect on VEGF-induced rabbit corneal angiogenesis”.
As to `CC(C)C[C@H](NC(=O)[C@H](Cc1c[nH]c2ccccc12)NC(=O)[C@@H](NC(=O)[C@H](C)NC(=O)[C@H](CS)NC(=O)[C@H](CCCNC(=N)N)NC(=O)[C@H](CCCNC(=N)N)NC(=O)[C@H](CCCNC(=N)N)NC(=O)[C@H](CCC(N)=O)NC(=O)[C@H](CCCNC(=N)N)NC(=O)[C@H](CCCNC(=N)N)NC(=O)[C@H](CCCCN)NC(=O)[C@H](CCCCN)NC(=O)[C@@H](N)CCCNC(=N)N)[C@@H](C)O)C(=O)N1CCC[C@H]1C(=O)N1CCC[C@H]1C(=O)N[C@@H](CCCNC(=N)N)C(=O)O` [TAT-AT7], the “phosphorylation level of ERK1/2” value in assay [4] was “significantly inhibited the phosphorylation level”. Also, in assay [5], the “phosphorylation level of SRC” value is recorded as “significantly inhibited the phosphorylation level”. The “total expression levels of VEGFR-2 and the above kinases” value in assay [6] is recorded as “no significant effect on the total expression levels”. Further, the “number of apoptotic cells (TUNEL)” value in assay [7] is “significantly higher than that in the saline, AT7, TAT, and TAT+AT7 groups”. In addition, the “affinity to NRP-1” value in assay [1] (compared with TAT or AT7 alone) is “higher affinity to VEGFR-2 and NRP-1”. Moreover, in assay [2] (compared with TAT or AT7 alone), the “affinity to VEGFR-2” value was “higher affinity to VEGFR-2 and NRP-1”.

The values are drawn from article PMC10218704, “A Novel Blood–Brain Barrier-Penetrating and Vascular-Targeting Chimeric Peptide Inhibits Glioma Angiogenesis” (International Journal of Molecular Sciences, 2023).
